Data from patent US20030113352A1, “Neutralization of stratum corneum to treat hyperkeratotic skin lesions” (The Regents of the University of California, priority 2001, published 2003).

Tests used:
hairless mice [1] = assay: Barrier recovery (TEWL) after tape-stripping; details: for barrier recovery after tape-stripping: NHE1 inhibitors, general statement
Procedure: Permeability Barrier Studies: Normal hairless mice were treated topically twice a daily for three days with BPB (4 mg/mL) or MJ33 (4 mg/mL) both in propylene glycol:ethanol (7:3 v/v) vehicle, or the vehicle alone on an area of 5-6 cm on the backs and flanks as described previously (Mao-Qiang, M., et al., J. Lipid Res. 36:1926-35 (1995)). […] The acidification experiments were performed with 10 mM HEPES-buffer, adjusted to either pH 5.5 or pH 7.4 as follows: One flank of anesthetized mice was immersed on a mesh netting, as described previously (Lee, S. H., et al., J. Clin. Invest. 89:530-8 (1992)). The mice were anesthetized with chloral hydrate (Morton Grove Pharmaceuticals, Morton Grove, Ill., USA). After 3 hours immersion at 37° C., the mice were removed, and the remaining buffer was gently blotted off. After 15 minutes, barrier function was determined by measurement of transepidermal water loss(TEWL) with an electrolytic water analyzer (MEECO®, Warrington, Pa.). […] Individually tested sites were covered with Hilltop Chambers (HtC, nominal volume 200 mL), which were reapplied following each indvidual measurement.
(§2) The stratum corneum was removed by several strippings with adhesive tape (Tesatape, Beiersdorf, Germany) inducing an increase in TEWL levels above baseline (from 2-5 to approximately 10-15 g/m^2/h). Two sites were prepared on each animal, and TEWL and surface pH were measured at 0, 2, 5 and 24 hrs following the stripping and the applications of inhibitors.
Hairless mice were tape stripped to TEWL of 7-9 g/m^2/h. […] Control areas were covered with Hilltop Chambers containing 10 mM HEPES buffer adjusted to pH 7.4 or pH 5.5 as appropriate. TEWL was measured at 0, 2, 5, and 24 hours post tape-strip. The results are reported as percent barrier recovery from the initial induced defect.

NHE1 antiporter = molecular target: T1, NHE1 antiporter (Homo sapiens, UniProt P19634); assay: Intracellular pH (BCECF) and recovery from acid load in cultured human keratinocytes; assay type: cell-based
T1 construct: endogenous in cells; host or cells: cultured human keratinocytes (CHK)
T1 sequence (P19634 whole entry): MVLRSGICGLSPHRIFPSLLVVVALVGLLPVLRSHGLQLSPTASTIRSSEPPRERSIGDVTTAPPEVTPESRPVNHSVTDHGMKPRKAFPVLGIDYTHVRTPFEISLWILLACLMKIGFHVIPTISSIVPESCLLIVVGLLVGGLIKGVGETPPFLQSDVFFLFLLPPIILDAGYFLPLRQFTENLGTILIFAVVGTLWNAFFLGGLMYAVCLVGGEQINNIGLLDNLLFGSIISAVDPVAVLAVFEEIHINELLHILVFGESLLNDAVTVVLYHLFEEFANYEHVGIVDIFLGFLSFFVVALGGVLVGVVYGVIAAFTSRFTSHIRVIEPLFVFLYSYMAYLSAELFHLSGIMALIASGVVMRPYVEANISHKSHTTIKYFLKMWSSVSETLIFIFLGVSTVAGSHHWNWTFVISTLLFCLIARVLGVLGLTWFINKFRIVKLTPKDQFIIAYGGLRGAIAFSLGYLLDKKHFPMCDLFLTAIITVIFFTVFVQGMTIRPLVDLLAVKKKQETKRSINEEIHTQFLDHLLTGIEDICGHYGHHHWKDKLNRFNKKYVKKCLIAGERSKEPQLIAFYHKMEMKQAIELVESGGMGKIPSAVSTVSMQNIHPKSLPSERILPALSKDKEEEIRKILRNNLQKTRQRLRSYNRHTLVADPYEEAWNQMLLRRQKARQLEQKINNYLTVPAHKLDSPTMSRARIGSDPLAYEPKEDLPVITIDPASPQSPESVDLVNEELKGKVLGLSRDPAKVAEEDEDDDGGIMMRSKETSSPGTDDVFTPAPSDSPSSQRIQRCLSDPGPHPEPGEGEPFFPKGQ
Procedure: Assessment of Intracellular pH: Keratinocytes were plated on glass coverslips and grown in Cascade 154 medium containing 0.07 mM Ca^2+. The coverslips were incubated in 145 μM BCECF-AM ester at room temperature for 5 minutes, then rinsed for 30 minutes in buffer containing either 28 mM HEPES, 136 mM NaCl, 5 mM KCl, 0.07 mM CaCl2 and 10 mM glucose, pH 7.4 or Ringer solution (136 mM NaCl, 5 mM KCl, 0.03 mM Ca2+, 28 mM TES, 14 mM Na HCO3, NaOH to adjust the pH to 7.4, and 10 mM glucose (pH 7.4, 330 mOsm)). BCECF-AM-ester is membrane permeable; once inside cells it is de esterified by endogenous […], trapping flourescently-active, acidic BCECF inside the cells. The BCECF-loaded cells were placed in a superfusion chamber mounted on a inverted microscope (Nikon). The keratinocytes were superfused with one of the two solutions, and baseline intracellular pH was monitored constantly using a ratiometric method (Paradiio et al (1987) Am J. Physiol. 253:C30-6). […] The resultant fluorescence (at 530 nm) from each stimulating wavelength was measured with a CCD camera (Hamamatsu) digitally ratioed, and stored using a software program (Fluor, Universal Imaging Co., West Chester, Pa.). Whereas fluorescence emission at 440 nm excitation remains constant, indicative of dye concentration, emission from 490 nm varies proportionally with changes of intracellular pH. […]

hairless mice [2] = assay: Skin surface pH after topical treatment or buffer exposure; assay type: in vivo, hairless mice (Skh1/Hr)
Procedure: (§3) The mice were anesthetized with chloral hydrate (Morton Grove Pharmaceuticals, Morton Grove, Ill., USA). After 3 hours immersion at 37° C., the mice were removed, and the remaining buffer was gently blotted off. After 15 minutes, barrier function was determined by measurement of transepidermal water loss(TEWL) with an electrolytic water analyzer (MEECO®, Warrington, Pa.). Surface pH was measured with a flat, glass surface electrode from Mettler-Toledo (Giessen, Germany), attached to a pH meter (Skin pH Meter PH 900, Courage& Khazaka, Cologne, Germany). Individually tested sites were covered with Hilltop Chambers (HtC, nominal volume 200 mL), which were reapplied following each indvidual measurement.

hairless mice [3] = assay: Stratum corneum cohesion: protein removed per D-Squame stripping; assay type: in vivo, hairless mice (Skh1/Hr)
Procedure: Before stripping the stratum corneum, the skin surface was cleaned with a single ethanol wipe. D-Squame tapes then were placed sequentially to the test areas for about 3 sec each, removed with forceps, and stored in glass scintillation vials at 5° C.
The amount of protein removed per D-Squame was measured, by a modification of the method of Dreher, F., et al., Acta Derm. […] The protein content per stripping was determined with the Bio-Rad protein assay kit. […] Each tape was incubated with 1 M NaOH for 1 hour at 37° C. in an incubator shaker at 80 rpm, and neutralized thereafter with 1 mL of 1 M HCl in the scintillation vials. Subsequently, 0.2 mL of this solution was incubated in 0.6 ml distilled water plus 0.2 mL of the Bio-Rad protein dye for 5 minutes in borosililate tubes. […] An empty D-Squame tape, as well as distilled water incubated with Bio-Rad dye, served as negative controls. The amount of calculated protein was then normalized to skin surface area (μg/cm^2).

hairless mice [4] = assay: Stratum corneum integrity: TEWL after sequential tape strippings; assay type: in vivo, hairless mice (Skh1/Hr)
Procedure: After 15 minutes, barrier function was determined by measurement of transepidermal water loss(TEWL) with an electrolytic water analyzer (MEECO®, Warrington, Pa.). […] Individually tested sites were covered with Hilltop Chambers (HtC, nominal volume 200 mL), which were reapplied following each indvidual measurement.
as §2

murine skin [5] = assay: Desmosome density and desmoglein-1 staining in lower stratum corneum; assay type: in vivo, mouse; details: for density of desmosomes in the lower stratum corneum and at the stratum corneum-stratum granulosum interface: inhibitor-treated vs vehicle sites
Excerpt: (§1) Ultrastructural methods: Freshly obtained biopsies from mouse skin were fixed directly in modified Karnovsky's fixative, postfixed with reduced osmium tetroxide (OSO4) and then imbedded in an Epon-epoxy mixture. For visualization of lipid-enriched, lamellar bilayer structures, some samples were post fixed in ruthenium tetroxide (RuO4). Sections were cut on a Reichert Ultracut E microtome, counterstained with uranyl acetate and lead citrate, and viewed in a Zeiss 10 CR electron microscope, operated at 60 kV.
Immunofluorescence Staining: Hairless mouse skin was excised with a 6 mm punch biopsy, and the subcutaneous fat was removed. Tissue sections were incubated for 1 hour in blocking buffer (1% bovine serum albumin, 0.1% cold water fish gelatin in phosphate buffered saline (PBS)), and were then incubated for 1 hour further at room temperature with 1:500 dilution of polyclonal rabbit anti-mouse desmoglein 1 antibody (gift of Dr. John Stanley, University of Pennsylvania) diluted in blocking buffer. The tissue was then washed with blocking buffer and incubated one hour at room temperature with fluoroscein, isothiocyanate-conjugated, goat anti-rabbit IgG antibody (DAKO, Carpinteria, Calif., USA), diluted in blocking buffer. Either preincubation of DSG 1 antibody with DSG 1-recombinant protein (gift of Dr. Masayuki Amagai, Keio University, Tokyo, Japan), or omission of the DSG 1 primary antibody eliminated specific staining.

hairless mice [6] = assay: Permeability barrier function by transepidermal water loss (TEWL); assay type: in vivo, hairless mice (Skh1/Hr)
Procedure: as §3

murine skin [7] = details: 4 mg/mL topical, shown previously; cited from earlier work
murine skin [8] = assay: Stratum corneum pH after tape-stripping with buffers and NHE1 inhibitors; assay type: in vivo, mouse
Procedure: The acidification experiments were performed with 10 mM HEPES-buffer, adjusted to either pH 5.5 or pH 7.4 as follows: One flank of anesthetized mice was immersed on a mesh netting, as described previously (Lee, S. H., et al., J. Clin. Invest. 89:530-8 (1992)). […] After 3 hours immersion at 37° C., the mice were removed, and the remaining buffer was gently blotted off. After 15 minutes, barrier function was determined by measurement of transepidermal water loss(TEWL) with an electrolytic water analyzer (MEECO®, Warrington, Pa.). Surface pH was measured with a flat, glass surface electrode from Mettler-Toledo (Giessen, Germany), attached to a pH meter (Skin pH Meter PH 900, Courage& Khazaka, Cologne, Germany). Individually tested sites were covered with Hilltop Chambers (HtC, nominal volume 200 mL), which were reapplied following each indvidual measurement.
as §2

mouse skin = assay: Electron microscopy of lamellar bodies and extracellular lipid processing; assay type: in vivo
Excerpt: as §1

[9] = five hours post tape-strip, in pH 7.4 buffer, buffer alone 38%
[10] = two hours post tape-strip, in pH 7.4 buffer, buffer alone 21%
[11] = fatty acid co-applied with BPB, three days
[12] = fifth strip, fatty acid co-applied with BPB

## N=C(N)NC(=O)c1nc(Cl)c(N)nc1N [amiloride, N-Amido-3,5-diamino-6-chloropyrazinecarboxamide]
Hairless mice [1]
  barrier recovery after tape-stripping: delayed barrier recovery
Hairless mice [1]; [9]
  percent barrier recovery (TEWL rate less than initial induced rate): about 25%
Hairless mice [1]; [10]
  percent barrier recovery (TEWL rate less than initial induced rate): about 12%
NHE1 antiporter; FIG. 1 (D), recovery from acid load after wash out
  effect after wash out period: non-permanent, non-toxic effect

## CCCCC/C=C\C/C=C\CCCCCCCC(=O)O [linoleic acid]
Hairless mice [2]; [11]
  pH of the stratum corneum: 5.77+/−0.10

## CCCCCCCCCCCCCCCC(=O)O [palmitic acid]
Hairless mice [3]; [12]
  protein lost: about 40 μg protein/cm^2
Hairless mice [3]; three strippings, fatty acid co-applied with MJ33
  protein lost: about 30 μg/cm^2
Hairless mice [4]; [12]
  TEWL after tape strips: 55-60 g/m^2/h
Hairless mice [4]; three sequential tape-strippings, fatty acid co-applied with MJ33
  TEWL after tape strips: 30-35 g/m^2/h
Hairless mice [2]; [11]
  pH of the stratum corneum: 5.40+/−0.14

## CCCCCCCCCCCCCCCCOCC(COCC(F)(F)F)OP(=O)(O)OC (centres unmarked) [MJ33, 1-Hexadecyl-3-triflouroethylglycero-sn-2-phosphomethanol]
Murine skin [5]
  density of desmosomes in the lower stratum corneum and at the stratum corneum-stratum granulosum interface: dramatic reduction
Hairless mice [3]; day 3, after three consecutive tape-strippings (Example 1)
  protein lost: over 50 μg protein/cm^2
Hairless mice [3]; three sequential strippings, MJ33 alone (Example 5)
  protein lost: about 50 μg protein/cm^2
Hairless mice [6]; by day three, vs vehicle
  fold increase in TEWL rates: 2-3 fold
Hairless mice [6]; day three, repeated applications, vehicle 2.97
  TEWL rates: 5.19+/−.81
Murine skin [7]
  toxicity of the doses employed: non-toxic
Hairless mice [4]; day 3, after three consecutive tape strippings (Example 1)
  TEWL after tape strippings: ~75 g/m^2/hr
Hairless mice [4]; three sequential tape-strippings, MJ33 alone (Example 5)
  TEWL after tape strips: ~75 g/m^2/h
Hairless mice [2]; MJ33 4 mg/mL vs vehicle alone (5.60)
  stratum corneum surface pH: 5.87+/−0.06

## O=C(CBr)c1ccc(Br)cc1 [BPB, bromphenacyl bromide]
Murine skin [5]
  density of desmosomes in the lower stratum corneum and at the stratum corneum-stratum granulosum interface: dramatic reduction
Murine skin [5]; laser confocal microscopy, lower stratum corneum
  density of DSG1 positive clusters: decline dramatically
Hairless mice [3]; after five strips (Example 1)
  protein removed: 85-90 μg/cm^2
Hairless mice [3]; first strip, after three days of treatment
  protein removed per D-Squame stripping: about 20 μg/cm^2
Hairless mice [3]; five sequential tape-strippings, BPB alone (Example 5)
  protein lost: about 125 μg protein/cm^2
Hairless mice [6]; BPB three days, before neutral buffer
  TEWL before buffer exposure: about 10 g/m^2/h
Hairless mice [6]; BPB three days, then acidic buffer three hours
  barrier function: remained unchanged
Hairless mice [6]; BPB three days, then neutral buffer three hours
  TEWL: about 18 g/m^2/h
Hairless mice [6]; day three of treatment
  TEWL: ~11 g/m^2/h
Hairless mice [6]; day two of treatment
  TEWL: ~6 g/m^2/h
Murine skin [7]
  toxicity of the doses employed: non-toxic
Hairless mice [4]; BPB treated sites then acidic buffer, three sequential strippings
  TEWL after tape strippings: less than 30 g/m^2/h
Hairless mice [4]; BPB treated sites then neutral buffer, three sequential strippings
  TEWL after tape strippings: more than 60 g/m^2/h
Hairless mice [4]; fifth strip, BPB alone (Example 5)
  TEWL after tape strips: 80-100 g/m^2/ h
Hairless mice [4]; fifth strip, after three days of treatment (Example 1)
  TEWL after tape stripping: ~90 g/m^2/h
Hairless mice [4]; second strip, after three days of treatment
  TEWL after tape stripping: ~20 g/m^2/h
Hairless mice [2]; BPB alone, comparison with LA co-application
  pH of the stratum corneum: 6.28+/−0.1
Hairless mice [2]; BPB alone, comparison with PA co-application
  pH of the stratum corneum: 5.92+/−0.05
Hairless mice [2]; BPB alone, comparison with SA co-application
  pH of the stratum corneum: 6.17+/−0.08
Hairless mice [2]; BPB three days, before buffer
  surface pH of BPB treated sites before buffer exposure: ~5.95 pH
Hairless mice [2]; BPB three days, then neutral buffer (pH 7.4) three hours
  surface pH: ~6.41 pH
Hairless mice [2]; after one day, 4 mg/mL topical twice daily
  pH of the skin: ~6.0 pH
Hairless mice [2]; day 3, 4 mg/mL topical twice daily
  average pH of treated sites: ~6.4 pH

## CCCCCCCCCCCCCCCCCC(=O)O [stearic acid]
Hairless mice [3]; [12]
  protein lost: about 25 μg protein/cm^2
Hairless mice [4]; [12]
  TEWL after tape strips: about 25 g/m^2/h
Hairless mice [2]; [11]
  pH of the stratum corneum: 5.73+/−0.09

## CS(=O)(=O)c1cc(C(=O)NC(=N)N)ccc1N1CCCCC1 [HOE694, 3-methylsulfonyl-4-piperidino-benzoylguanidinemethanesulfonate]
Hairless mice [1]; 2 hours post tape-strip, in pH 5.5 buffer, buffer alone 28%
  percent barrier recovery (TEWL rate less than initial induced rate): 25%
Hairless mice [1]; 5 hours post tape-strip, in pH 5.5 buffer
  percent barrier recovery (TEWL rate less than initial induced rate): 38%
Hairless mice [1]; 24 hours post tape-strip, in pH 5.5 buffer
  percent barrier recovery (TEWL rate less than initial induced rate): 75%
Hairless mice [1]; 24 hours post tape-strip, in pH 7.4 buffer, buffer alone 75%
  percent barrier recovery (TEWL rate less than initial induced rate): about 45%
Hairless mice [1]
  barrier recovery after tape-stripping: delayed barrier recovery
Hairless mice [1]; [9]
  percent barrier recovery (TEWL rate less than initial induced rate): 23%
Hairless mice [1]; [10]
  percent barrier recovery (TEWL rate less than initial induced rate): about 12%
Murine skin [8]; 2 hours post-tape-strip, pH 5.5 HEPES buffer
  stratum corneum pH relative to initial post-tape-strip value: more than 0.1 pH units
Murine skin [8]; 5 hours post-tape-strip, pH 5.5 HEPES buffer
  stratum corneum pH relative to initial post-tape-strip value: more than 0.05 pH units
Murine skin [8]; five hours post-tape-strip, pH 7.4 buffer
  stratum corneum pH relative to initial post-tape-strip value: persisted and even increased
Murine skin [8]; in pH 5.5 buffer, vs pH 5.5 buffer alone
  initial post-tape-strip pH value: increased significantly
Murine skin [8]; two hours post-tape-strip, in pH 7.4 buffer
  stratum corneum pH above that of skin exposed to pH 7.4 buffer alone: ~0.05 pH units
Murine skin [8]; two hours post-tape-strip, pH 7.4 buffer
  stratum corneum pH increase over initial post-tape-strip value: > 0.1 pH units
Mouse skin; in pH 5.5 buffer
  lamellar body formation and extracellular processing of secreted lipids: appeared normal
Mouse skin; in pH 7.4 buffer
  extracellular processing of secreted lipids: defective
  lamellar body formation and secretion: undisturbed
NHE1 antiporter; 1.5 μM for 16 hours, from pH 7.05
  intracellular pH: 6.90 pH
